Tested on: Mycobacterium tuberculosis variant bovis
Experiment: Anti-mycobacterial activity against Mycobacterium bovis assessed as growth inhibition at 16.13 uM relative to control
Assay type: functional

| Structure (SMILES) | inhibition at 16.13 µM |
| --- | --- |
| CC(C)C[C@H](NC(=O)[C@H](CCCNC(=N)N)NC(=O)CNC(=O)[C@H](CC(C)C)NC(=O)[C@@H](NC(=O)[C@@H](CCCCN)NC(=O)[C@@H](NC(=O)[C@H](CC(C)C)NC(=O)[C@H](CCCNC(=N)N)NC(=O)CNC(=O)[C@H](CC(C)C)NC(=O)[C@@H](NC(=O)[C@@H](N)CCCCN)C(C)C)C(C)C)C(C)C)C(=O)N[C@H](C(N)=O)C(C)C | 95% |
| CC(C)C[C@H](NC(=O)[C@H](CCCNC(=N)N)NC(=O)CNC(=O)[C@H](CC(C)C)NC(=O)[C@@H](NC(=O)[C@H](CCCCN)NC(=O)[C@@H](NC(=O)[C@H](CC(C)C)NC(=O)[C@H](CCCNC(=N)N)NC(=O)CNC(=O)[C@H](CC(C)C)NC(=O)[C@@H](NC(=O)[C@@H](N)CCCCN)C(C)C)C(C)C)C(C)C)C(=O)N[C@H](C(N)=O)C(C)C | 80% |

— ChEMBL document CHEMBL5030557, “Tandem Repeat of a Short Human Chemerin-Derived Peptide and Its Nontoxic d-Lysine-Containing Enantiomer Display Broad-Spectrum Antimicrobial and Antitubercular Activities” (J Med Chem, 2021)
